Data taken from patent US20100137344A1, “INDUCTION OF ANALGESIA IN NEUROPATHIC PAIN” (University Court of the University of Edinburgh, priority 2006, published 2010).

Assays:
[1] = tested on: saphenous nerve afferents; assay: Saphenous nerve afferent recordings after topical application to receptive field; type: in vivo, rat
Source text: Antisense and mis-sense oligonucleotides were 22-mers with phosphorothioate bonds at the last two positions at 5′ and 3′ ends (MWG Biotech, Ebersberg, Germany). Antisense extended from base −10 to base +12 relative to the start of the open reading frame for the rat TRPM8 gene: 5′ C*T*CGAAGGACATCTTGCCGT*G*G 3′, where * represents phosphorothioate linkages. Mis-sense was designed with 4 inversions of C/G or A/T as appropriate at residues 3, 11, 14 and 22, preserving overall G/C content. BLAST searches of both oligonucleotides indicated no significant complementarity to any known gene sequence. 14-day or 7-day osmotic minipumps (for CCI experiments or naïve electrophysiology experiments respectively—Alzet Minipump, models 2002, 2001; Charles River, UK) containing oligonucleotides (1 μg/μl in sterile saline) were connected to canulae inserted under the dura of the spinal cord to level L5/6 and produced a predicted infusion rate of 0.5 μl/h. CCI surgery was performed at the same time as minipump implantation. Sensory tests were carried out to assess the time-course of behavioural sensitisation in animals which had also undergone a CCI injury. Icilin was applied topically rather than intrathecally so as to prevent any interference with the infusion canula. Peripheral nerve recordings and tissue harvesting were carried out after an interval of 4-5 days to allow time for protein knockdown.
Peripheral: Recordings of saphenous (sensory) nerve were made in naïve animals (n=7) to assess the effects of topical icilin on primary afferents. In addition, recordings were carried out on animals which had undergone TRPM8 antisense or mis-sense treatment beginning 4-5 days previously. Rats were anaesthetised (with 0.6 ml 25% urethane/100 g, i.p.) and the saphenous nerve was exposed and dissected from its associated vein and artery. Further dissection under liquid paraffin enabled identification of afferent preparations comprising a small number of fibres. The conduction velocity of single identified afferent fibres was determined using bipolar electrodes and the peripheral stimulus technique^[43]. Following isolation of preparations, icilin (200 μM in water with 0.2% DMF), (−)-menthol (4 mM in 25% ethanol) resiniferatoxin (1 mM in ethanol) or vehicle alone were applied to the hindlimb receptive fields and neuronal responses recorded using the Chart programme (version 3.6). Central: Recordings of spinal dorsal horn neurons were made in CCI animals, as described previously^[39]. Following halothane induction, the jugular vein and trachea were canulated and intravenous anaesthetic delivered: α-chloralose ([…], Fisher) and urethane ([…], Sigma), with small supplementary doses of α-chloralose as required throughout the experiment. Core body temperature was maintained at 37-38° C. by means of a thermostatically controlled heated blanket. The animal was placed in a stereotaxic frame, and the thoracolumbar spinal column was supported using three pairs of swan-necked clamps. A laminectomy was performed at L2-L5, and agar (2% in saline at 37° C.) was delivered over exposed cord to increase mechanical stability. Above the recording region the agar and spinal cord dura were removed and liquid paraffin poured into the pool. Extracellular recordings were made from single multireceptive neurons in laminae I-IV through the centre barrel of a seven-barrelled glass microelectrode filled with 4M NaCl (tip-diameter […], DC resistance 5-8 MΩ). The receptive fields of hair-follicle innervated neurons on the distal hindlimb were identified by an innocuous brush stimulus^[39]. Icilin (200 μM in water with 0.2% DMF) was applied peripherally to the receptive field of individual recorded neurons, and the effect on neuronal response to a rotating brush was recorded and analysed using Spike2 programme (Version 3.2, CED). […]

naïve rats = assay: Intrathecal application in naïve rats, behavioural reflex testing (PWL, PWT); type: in vivo, rat; settings: icilin 10 nmol, (−)-menthol 200 nmol, data not shown
Description: Thermal sensitivity was assessed by measuring paw withdrawal latency (PWL, s) in response to a noxious thermal stimulus (Hargreaves' thermal stimulator, Linton Instrumentation, Diss, UK) directed to the hindpaw mid-plantar glabrous surface. Mechanical sensitivity was recorded as the paw withdrawal threshold (PWT, mN/mm^2) to calibrated von Frey filaments (Stoelting, Ill., US), as previously described^[39]. Sensitivity to noxious cold was assessed by placing animals in a waterbath with an aluminium floor containing 1 cm deep 4° C. water and counting the time the paw was held suspended over a 20 s period.
The following drugs were applied intrathecally in a 50 μl volume of saline-based vehicle at 37° C.: icilin (2.5-200 μM in saline with 0.2% dimethylformamide, DMF), LY 341495 (100 μM in saline), UBP 1112 (200 μM in saline), 2R,4R-APDC ((2R, 4R)-4-aminopyrrolidine-2,4-dicarboxylate), 300 μM in saline), ACPT-III ((1R,3R,4S)-1-aminocyclopentane-1,3,4-tricarboxylic acid), 3 mM in saline), AP-4, ((L-(1)-2-amino-4-phosphonobutyric acid), 3 mM in saline), naloxone (0.5 mM in saline), NMDA (75 μM in saline) and ACPC (1-aminocyclopropanecarboxylic acid, 15 μM in saline) (Tocris Cookson, Bristol, UK), (−)-menthol (1R,2S,5R-(−)-menthol, 4 mM in saline), cinnamaldehyde (1.5 mM in saline) and Ruthenium Red (5 μM in saline) (Sigma-Aldrich Co. Ltd, UK) and allicin (0.5 mM in saline with 0.5% DMF) and diallyl disulphide (DADS, 1 mM in saline with 0.5% DMF) (LKT Laboratories Inc., St Paul, Minn., USA). Drugs were injected into the L5/6 intrathecal space under brief halothane anaesthesia, using a 25-gauge needle microsyringe (BD Biosciences, Oxford, UK), as described previously^[39] in animals that were at peak levels of behavioural sensitisation. Behavioural reflex testing commenced 15 min following injection to allow recovery from anaesthesia^[40,41,42] and continued every 5 min thereafter until readings returned to baseline levels (n=6 in each case). We, and others^[40,41,42] find complete recovery from anaesthetic by 15 minutes. All appropriate controls were carried out to eliminate the possibility of effects due to vehicle or to injection procedure.
The TRPM8 channel activators, icilin and (−)-menthol were tested in CCI and naïve animals. The effects of icilin were additionally assessed in animals with CFA-induced inflammation or with lysolecithin-induced demyelination. Icilin was also co-administered with the μ-opioid receptor antagonist naloxone, the Group II metabotropic glutamate receptor (mGluR) antagonist, LY 341495, or the Group III mGluR antagonist, UBP 1112. The effects of these antagonists alone as well as effects of the Group II mGluR agonist, 2R,4R-APDC and the Group III mGluR agonists, ACPT-III and AP-4, were assessed in CCI animals. The TRPA1 channel activator, cinnamaldehyde, alone and with icilin, was tested in CCI animals and in naïve animals. Further TRPA1 channel activators, allicin and diallyl disulphide were assessed in naïve animals. Both icilin and cinnamaldehyde effects in CCI animals were also investigated in the additional presence of Ruthenium Red.

[2] = antisense-treated animals, topical icilin 200 μM, (−)-menthol 4 mM, resiniferatoxin 1 mM
[3] = mis-sense-treated animals, topical icilin 200 μM, (−)-menthol 4 mM
[4] = mis-sense-treated animals, topical icilin 200 μM, (−)-menthol 4 mM, resiniferatoxin 1 mM

Row | Compound | activation of afferents ([1]; antisense-treated animals, (−)-menthol 4 mM, 28 identified afferents recorded) | firing frequency after drug [1, 2] [Hz] | recorded fibres activated [1, 3] [%] | firing frequency after drug [1, 4] [Hz] | increase in firing frequency [1, 4] | effect on reflex responses in naïve animals (naïve rats) | increase in firing frequency ([1]; antisense-treated animals, topical icilin 200 μM, resiniferatoxin 1 mM) | recorded slowly conducting fibres activated ([1]; antisense-treated naïve animals, icilin 200 μM topical, 3 out of 34) [%] | recorded fine afferents with significant increase in firing frequency ([1]; icilin 200 μM to receptive field, naïve animals, 40 out of 185) [%] | effect on large myelinated mechanoreceptors ([1]; icilin 200 μM, conduction velocities 6.8-15 ms^−1, n=43) | mean time to peak effect ([1]; icilin 200 μM, naïve animals) [min] | firing frequency after drug ([1]; icilin 200 μM, naïve animals, baseline 4.5±2.5 Hz) [Hz] | mean increase in firing frequency ([1]; icilin 200 μM, naïve animals, from baseline of 4.5±2.5 Hz) [fold]
1 | CC(C)[C@@H]1CC[C@@H](C)C[C@H]1O [(−)-menthol, 1R,2S,5R-(−)-menthol] | no obviously activated afferents | 4.8±1.9 | 20 | 38.9±7.6 | approximately 8 fold | without effect |  |  |  |  |  |  | 
2 | O=C1NC(c2cccc([N+](=O)[O-])c2)=CCN1c1ccccc1O [icilin, 1-(2′-hydroxyphenyl)-4-(3″-nitrophenyl)-1,2,3,6-tetrahydropyrimidin-2-one] |  | 12.7±0.6 | 25 | 23.1±3.2 | 7 fold | without effect | approximately 2 fold | 8.8 | 21.6 | unaffected | 3.3 ± 0.5 | 31.6 | 7
